Data taken from US20100331185A1, “Herbicidal Compositions of Lithium Glyphosate and Adjuvants” (COGNIS IP […], priority 2007, published 2010).
Read-outs that look alike come from different tables or passages of the source.

Tests used:
[1] = Procedure: 35.2 g of glyphosate tech (96%, 0.208 mol) was mixed with 20 g water in a flask. 8.4 g of LiOH monohydrate was added to this mixture with good mixing.
[2] = acid form, in water at 25° C.; cited from earlier work

SMILES | product pH (1%) [1] | Li glyphosate Solubility ([1]; solvent: Agnique KE 3658) [mg/mL] | Li glyphosate Solubility ([1]; solvent: Agnique ME 610) [mg/mL] | Li glyphosate Solubility ([1]; solvent: Exxsol D-110) [mg/mL] | Li glyphosate Solubility ([1]; solvent: N-Methyl pyrrolidone) [mg/mL] | Li glyphosate Solubility ([1]; solvent: Water) [mg/mL] | solubility in water [2] [% by weight]
O=C(O)CNCP(=O)([O-])O.[Li+] [Li glyphosate, lithium glyphosate] | 4.98 | <100 | <50 | <50 | <150 | <200 | –
O=C(O)CNCP(=O)(O)O [glyphosate] | – | – | – | – | – | – | 0.16
